According to patent US20250281461A1 (The Board of Supervisors of Louisiana State University and …, priority 2021, published 2025):
Values joined by “and” are separate entries in the source; they are usually repeats but may differ in a detail not shown here. Identical values can stand only once.

How the values were obtained:
[1] = system: SARS-COV-2 virus (USA WA1/2020); test: ACE2 mouse model, lung tissue RT-qPCR viral titer; type: in vivo; settings: K18-hACE2 mice; for Lung Tissue RT-qPCR Viral Titer Log10, Group Mean: Day 6, 7 animals
[2] = system: SARS-COV-2 virus (USA WA1/2020); test: ACE2 mouse model, TCID50 analysis of lung samples; type: in vivo; settings: K18-hACE2 mice, Day 6 lung; for Titer, TCID50 analysis of lung samples, Group Mean: 7 animals; for Titer, TCID50 analysis of lung samples, individual animals: scored on Vero C1008 (E6) cells after 120 hours
Calu-3 = test: Cytotoxicity of Imatinib in Calu-3 cells; settings: any concentration tested (up to 100 μM)
[3] = system: SARS-COV-2 (USA-WA1/2020 Isolate); type: cell-based; settings: Calu-3 cells, Mebendazole 2.3 nM-5000 nM
[4] = system: human lung cancer (Calu-3) cells
[5] = cited from earlier work
in vitro = settings: human
[6] = pre-clinical models, oral administration; cited from earlier work
[7] = Day 6, 50 mg/kg/day Mebendazole and/or 100 mg/kg/day Imatinib, oral gavage once daily

## Cc1ccc(NC(=O)c2ccc(CN3CCN(C)CC3)cc2)cc1Nc1nccc(-c2cccnc2)n1 [Imatinib]
[1]
  Lung Tissue RT-qPCR Viral Titer Log10, Group Mean: 7.8
[1]; [7]
  Lung Tissue RT-qPCR Viral Titer Log10, individual animals: 7.9 (2×) and 8.0 and 7.3 and 8.5 and 7.6 and 7.7
  Lung Tissue RT-qPCR Viral Titer, individual animals: 7.80E+07 and 9.13E+07 and 2.15E+07 and 7.53E+07 and 3.12E+08 and 3.67E+07 and 5.37E+07
[2]
  Titer, TCID50 analysis of lung samples, Group Mean: 7.4 Log10 TCID50/mL
  Titer, TCID50 analysis of lung samples, individual animals: 8.0 Log10 TCID50/mL and 6.5 Log10 TCID50/mL and 8.3 Log10 TCID50/mL and 7.5 Log10 TCID50/mL and 5.3 Log10 TCID50/mL and 7.6 Log10 TCID50/mL and 8.5 Log10 TCID50/mL
Vero 76 cells
  cytotoxicity: no cytotoxicity was observed
Calu-3
  cytotoxicity: no cytotoxicity was observed

## COC(=O)Nc1nc2ccc(C(=O)c3ccccc3)cc2[nH]1 [Mebendazole]
[3]
  Inhibition of SARS-COV-2 (maximum reached): 100%
[1]
  Lung Tissue RT-qPCR Viral Titer Log10, Group Mean: 7.6
[2]
  Titer, TCID50 analysis of lung samples, Group Mean: 5.8 Log10 TCID50/mL
  Titer, TCID50 analysis of lung samples, individual animals: 6.0 Log10 TCID50/mL and 5.3 Log10 TCID50/mL (2×) and 4.8 Log10 TCID50/mL and 5.5 Log10 TCID50/mL and 7.3 Log10 TCID50/mL and 6.5 Log10 TCID50/mL
[4]; all tested concentrations up to 5000 nM
  inhibition of cell viability: ~0%
[4]; read-out: CC50 (cytotoxic concentration), estimated from absence of cytotoxicity up to 5000 nM
  CC50: > 5 µM
[5]; 100 mg twice daily for three consecutive days
  plasma concentrations: ≤ 0.03 μg/mL and ≤ 0.1 μM
[5]; long-term oral administration
  higher exposure to steady-state: ~3 fold
[5]; oral dose
  oral dose excreted in urine: < 2%
[5]; reported
  oral bioavailability: 17%
In vitro
  CC50: > 5 µM
[6]
  bioavailability: about 15%
